Laboratory results as given in paper PMC11306024, “Novel metabolite madeirone and neomarinone extracted from Streptomyces aculeoletus as marine antibiofilm and antifouling agents” (Frontiers in Chemistry, 2024).

Experiments:
Aliivibrio fischeri = assay: Inhibition of bioluminescence (ISO 11348-3 micro adaptation); format: cell-based; details: Aliivibrio fischeri
Experimental: The in vivo evaluation of compounds (1) and (2) for acute toxicity was performed towards marine bacterium Aliivibrio fischeri, and planktonic crustacean Daphnia magna. The chronic ecotoxicity tests were evaluated using algae Pseudokirchneriella subcapitata and Phaeodactylum tricornutum.
The inhibition of bioluminescence of the marine bacterium A. fischeri, were studied following a micro adaptation of the standard procedure ISO 11348-3 (“Water Quality-Determination of the inhibitory effect of water samples on the light emission of Vibrio fischeri - Luminescent bacteria test–using freeze-dried bacteria method”). Briefly, frozen lyophilized bacterial cells (Abraxis, Warminster, PA, United States) were reconstituted in Reconstitution Solution, supplied by the manufacturer of the Abratox kit (Abraxis). Madeirone (1) and neomarinone (2) were dissolved in DMSO and tested at the concentrations of 100, 50, 25, 12.5, 6.25, 3.13, and 1.56 μg/mL. The emitted luminescence was measured using a luminometer at time 0 min and at different exposure times (5, 15 and 30 min) and the percentage of inhibition of bioluminescence was determined. Each experiment was performed in duplicate and the results of three independent experiments with <10% SD are presented. Phenol was used as a positive control.

[1] = Mussel larvae acute toxicity (mortality); details: Mytilus galloprovincialis, in vivo, other: waterborne exposure in 24-well plates; 15 h acute exposure
Experimental: The in vivo antimacrofouling activity of compounds (1) and (2) was evaluated against mussel M. galloprovincialis adhesive larvae (plantigrades) in an acute bioassay. Juvenile mussel aggregates were harvested from the intertidal rocky shore during low spring tides at Memória beach, Matosinhos, Portugal. In the laboratory, precisely before the bioassays, mussel plantigrade larvae were meticulously screened and isolated from the juvenile aggregates using a binocular microscope (Olympus SZX2-ILLT, Hamburg, Germany). The isolated larvae were then washed with filtered seawater to eliminate organic debris, and competent plantigrade larvae, characterized by foot exploratory behavior, were selected for the exposure bioassays, following established protocols ([Almeida et al., 2017]; [Almeida et al., 2020]; [Antunes et al., 2019]; [Mabrouk et al., 2020]). Plantigrades were exposed in 24-well polystyrene plates for 15 h in darkness at 18°C. DMSO served as the solvent for the testing compounds in stock and working solutions. The DMSO concentration in the tested solutions was consistently maintained at 0.1%. […] The anti-settlement bioactivity was assessed based on the presence or absence of fixed byssal threads produced by each individual larva for all tested conditions. […] EC50 values for each compound were calculated using Probit regression analysis. […]

M. luteus = assay: Antibiofilm activity (inhibition of biofilm formation); format: cell-based, Micrococcus luteus DSM 20030
Experimental: To assess antimicrofouling activity, we selected five marine bacterial species as models: Marinobacter hydrocarbonoclasticus DSM 8798 (ATCC 49840), C. marina DSM 4741, Phaeobacter inhibens DSM 17,395, Pseusooceanicola batsensis DSM 15,984, and Micrococcus luteus DSM 20030 (ATCC 4698) ([Michael et al., 2016]). These strains, sourced from DSMZ (Leibniz Institute DSMZ—German Collection of Microorganisms and Cell Cultures), were cultured in liquid marine broth (Carl Roth GmbH, Karlsruhe, Germany) with agitation at 180 rpm or on agar-supplemented marine broth. Incubation temperatures were set at 28°C for M. hydrocarbonoclasticus and Cobetia marina, 30°C for P. inhibens and P. batsensis, while M. luteus was maintained at 37°C in Brain Heart Infusion broth (BHI, Becton Dickinson, GmbH, Heidelberg, Germany) under similar agitation conditions.
The antibiofilm potential of compounds (1) and (2) against the five marine bacterial species was investigated in 96-well polystyrene flat-bottom microplates (Nunclon Delta Surface, Thermo Scientific, Roskilde, Denmark), as described previously ([Bauermeister et al., 2019]; [Pereira et al., 2020]). In the initial screening, bacterial overnight cultures were diluted to an OD600 of 0.2 and incubated statically at appropriate temperatures. The cultures were tested at 31.25, 15.60, 7.81, 3.91, 1.95, 0.98 μg/mL concentrations (2-fold serial dilutions) of compounds (1) and (2), solubilized in DMSO, or left untreated. After 24 h (M. hydrocarbonoclasticus, C. marina) or 48 h (P. batsensis, P. inhibens, M. luteus) incubation, OD600 was measured. The planktonic cells and media were discarded, and the wells were washed twice with deionized water. Biofilms were fixed, stained, and quantified by measuring the OD600 after solubilization with acetic acid. Biofilm inhibition percentages were calculated relative to untreated bacterial species, using DMSO as a negative control and CuSO4 (0.16 μg/mL), as a positive control. All assays were performed in triplicate, and the results represent the mean and standard error of the mean (SEM). Statistical analysis was conducted using GraphPad Prism 8.0.2, employing one-way ANOVA followed by Dunnett’s multiple comparisons test against the negative control.

| Structure (SMILES) | Inhibition (%) A. fischeri (bioluminescence) (Aliivibrio fischeri; 50 µg/mL) [%] | Inhibition (%) A. fischeri (bioluminescence) (Aliivibrio fischeri; 100 µg/mL) [%] | LC50 at 15 h [1] [µg/mL] | Biofilm inhibition (%) M. luteus (M. luteus; 0.98 µg/mL, 48 h) | Biofilm inhibition (%) M. luteus (M. luteus; 1.95 µg/mL, 48 h) | Biofilm inhibition (%) M. luteus (M. luteus; 3.91 µg/mL, 48 h) | Biofilm inhibition (%) M. luteus (M. luteus; 7.81 µg/mL, 48 h) | Biofilm inhibition (%) M. luteus (M. luteus; 15.60 µg/mL, 48 h) | inhibition at 31.25 µg/mL (M. luteus; Micrococcus luteus, 48 h) [%] | Biofilm inhibition, up to (highest over tested concentrations) M. luteus (M. luteus; 0.98-31.25 µg/mL tested) | inhibition at 3.91 µg/mL (M. luteus; Micrococcus luteus, 3.91 µg/mL, 48 h) [%] | inhibition at 7.81 µg/mL (M. luteus; Micrococcus luteus, 7.81 µg/mL, 48 h) [%] | inhibition at 15.6 µg/mL (M. luteus; Micrococcus luteus, 15.60 µg/mL, 48 h) [%] |
| --- | --- | --- | --- | --- | --- | --- | --- | --- | --- | --- | --- | --- | --- |
| CC1=CCC[C@@H](C)[C@]1(C)CC[C@@]1(C)c2c(O)cc3c(c2O[C@@H]1C)C(=O)C=C(CO)C3=O (relative stereo) [compound 1, madeirone] | 15.1 | 49.2 | > 10 | N.I. | N.I. | N.I. | N.I. | N.I. | 35.3 ± 0.2 | – | – | – | – |
| CC1=CCC[C@@H](C)[C@]1(C)CC[C@@]1(C)c2c(O)cc3c(c2O[C@@H]1C)C(=O)C(C)=C(O)C3=O [compound 2, neomarinone] | 25.0 | 37.3 | > 4 | N.I. | N.I. | – | – | – | 33.3 ± 7.3 | up to 40% | 7.8 ± 16.9 | 29.9 ± 12.4 | 41 ± 8.2 |
